What was measured:
[1] = Pigment dispersion: wet point and flow point; format: physicochemical; conditions: for Fp (flow point), amount of ester oil needed / Wp (wet point), amount of ester oil needed: grams per 100 g of pigment, Black Iron Oxide CI77499
Description: Black Iron Oxide particles (CI77499, commercially available as YPC335200 from Yipin) were dispersed in each of the ester oils of the present invention and in ester oil commonly used as cosmetic ingredients. Each sample of powder particles was wetted by the dropwise addition of one ester oil and then vigorously blended using a spatula until the wet point and the flow point were reached.
The wet point is defined as the minimum volume of dispersant solution to produce a soft coherent mass; the further minimum addition of dispersant solution to produce flow or falling off of the homogeneous mass from the vertical blade of a horizontally held spatula determines the flow point.
The amounts of dispersant solution (i.e. ester oil) needed to reach the wet point (Wp) and the flow point (Fp) were recorded and reported in the table below, expressed in grams per 100 g of pigment.

[2] = UV filters dispersion: dispersibility of a solid UV filter in ester oils; format: physicochemical; parameters: key to Filters dispersion t0 1% / Filters dispersion t0 10% / Filters dispersion t24 1% / Filters dispersion t24 10%: D=homogeneous dispersion; S=sediment deposit; conditions: for Filters dispersion t0 1%: 1% TiO2, storage 0 hours at 25° C.; for Filters dispersion t24 1%: 1% TiO2, storage 24 hours at 25° C.; for Filters dispersion t0 10%: 10% TiO2, storage 0 hours at 25° C.; for Filters dispersion t24 10%: 10% TiO2, storage 24 hours at 25° C.; for dispersion of Titania: in words, compared with reference solvents
Protocol: The dispersibility of a solid UV filter in different ester oils was tested using Titania (TiO2, commercially available as Titanio Biossido Anatasio from A.C.E.F.). Various ratios of filter/ester (1% and 10% TiO2) were prepared under stirring at 70° C. for 30 minutes. The dispersions were then observed after a storage period of 0 hours (t0) and 24 hours (t24) at ambient temperature (25° C.) to check for the formation of any sediment deposit. Results for each ester are shown in the table below (D=homogeneous dispersion; S=sediment deposit).

Compound: CC(C)CCCCCCOC(=O)CCCCCC(C)C [Isononyl Isononanoate, reference compound]
- Fp (flow point), amount of ester oil needed [1]: 145.00 g
- Wp (wet point), amount of ester oil needed [1]: 50.00 g
- Filters dispersion t0 1% [2]: D
- Filters dispersion t24 1% [2]: S
- Filters dispersion t0 10% [2]: D
- Filters dispersion t24 10% [2]: S

Compound: CCCCCCCCC(=O)OCC(C)(C)COC(=O)CCCCCCCC [Neopentyl glycol dipelargonate]
- Fp (flow point), amount of ester oil needed [1]: 166.00 g
- Wp (wet point), amount of ester oil needed [1]: 61.00 g
- Filters dispersion t0 1% [2]: D
- Filters dispersion t24 1% [2]: S/D
- Filters dispersion t0 10% [2]: D
- Filters dispersion t24 10% [2]: S/D

Compound: CCCCCCCCC(=O)OCC(COC(=O)CCCCCCCC)(COC(=O)CCCCCCCC)COC(=O)CCCCCCCC [Pentaerythritol tetrapelargonate]
- Fp (flow point), amount of ester oil needed [1]: 132.00 g
- Wp (wet point), amount of ester oil needed [1]: 62.00 g
- Filters dispersion t0 1% [2]: D
- Filters dispersion t24 1% [2]: D
- Filters dispersion t0 10% [2]: D
- Filters dispersion t24 10% [2]: D
- dispersion of Titania [2]: even better

Compound: CCCCCCCCC(=O)OCC(COC(=O)CCCCCCCC)OC(=O)CCCCCCCC [Glycerol tripelargonate]
- less solvent required in the final composition ([1]; from the minimum difference between Fp and Wp): about 30%
- Fp (flow point), amount of ester oil needed [1]: 100.00 g
- Wp (wet point), amount of ester oil needed [1]: 60.00 g
- dispersion properties ([1]; in words, compared with commonly used cosmetic ingredients): even better than those of Caprylic/Capric Triglyceride
- Filters dispersion t0 1% [2]: D
- Filters dispersion t24 1% [2]: D
- Filters dispersion t0 10% [2]: D
- Filters dispersion t24 10% [2]: S/D
- dispersion of Titania [2]: even better
